Laboratory results taken from patent US12628858B2, “Therapy for colorectal and small intestine cancers” (Cornell University, priority 2019, dated 2026).

System: Tumors from APC-/- mice
Experiment: 13C isotopic tracing in APC-/- tumors ex vivo (LC-MS/MS)
Assay type: cell-based, mouse
Settings: 10 min ex vivo

Structure (SMILES)	F1P 13C-labeled at all six positions (M+6), percentage of labeling	percentage of fully labeled lactate
O=[13C]([13CH2]O)[13C@@H](O)[13C@H](O)[13C@H](O)[13CH2]O [^13C-fructose, D-[U-^13C6]-Fructose]	47.1%	
O=[13CH][13C@H](O)[13C@@H](O)[13C@H](O)[13C@H](O)[13CH2]O [^13C-glucose, D-[U-^13C6]-Glucose]		30.2%
